Results published in US8546579B2, “Bicycloheteroaryl compounds as P2X7 modulators and uses thereof” (Evotec (US) Inc., priority 2006, dated 2013).

Target: T1, P2X7 receptor (Homo sapiens, UniProt Q99572)
T1 construct: host or cells: THP-1 cells differentiated with LPS and IFN-γ
T1 sequence (Q99572 1-595): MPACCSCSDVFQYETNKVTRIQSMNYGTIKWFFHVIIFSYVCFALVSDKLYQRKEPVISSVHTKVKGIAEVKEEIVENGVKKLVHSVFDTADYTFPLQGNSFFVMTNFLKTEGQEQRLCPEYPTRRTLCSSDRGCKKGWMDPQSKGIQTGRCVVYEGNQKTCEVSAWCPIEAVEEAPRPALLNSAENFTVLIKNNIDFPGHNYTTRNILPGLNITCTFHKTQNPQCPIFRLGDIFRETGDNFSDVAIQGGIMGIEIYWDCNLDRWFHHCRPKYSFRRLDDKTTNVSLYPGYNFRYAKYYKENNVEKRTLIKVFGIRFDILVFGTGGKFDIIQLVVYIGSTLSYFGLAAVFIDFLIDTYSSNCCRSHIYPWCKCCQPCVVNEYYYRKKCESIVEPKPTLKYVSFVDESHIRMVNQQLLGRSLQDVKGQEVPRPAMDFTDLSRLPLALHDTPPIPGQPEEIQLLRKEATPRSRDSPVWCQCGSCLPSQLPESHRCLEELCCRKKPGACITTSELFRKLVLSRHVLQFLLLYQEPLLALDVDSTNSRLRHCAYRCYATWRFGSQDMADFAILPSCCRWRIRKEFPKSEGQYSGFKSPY
Test: IL-1β release assay in differentiated THP-1 cells stimulated with BzATP (Example 9)
Format: cell-based
Conditions: differentiated THP-1 cells, BzATP 250 uM; for inhibition at 0.3 µM: 0.3 μM compound, symbols + to ++++, read-out: IL-1β % Inhib. @ 0.3 μM
In short: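 THP-1 cells differentiated 16 h with LPS and IFN-γ (100 ng/mL each), re-primed 2 h with LPS, then compound-pretreated 30 min before 250 uM BzATP for 45 min. Supernatant IL-1β quantified by ELISA; background-adjusted percent inhibition fitted to four-parameter logistic for IC50.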

Row | Compound | inhibition at 0.3 µM | inhibition at 0.1 µM (0.1 μM compound, symbols * to ****, read-out: IL-1β % Inhib. (asterisk symbols: at 0.1 μM))
1 | CCOc1ccccc1CC(=O)Nc1cccc2c(=O)n(C)ccc12 [Compound 1307] | 0 to 25% | 
2 | Cn1ccc2c(NC(=O)c3cc4cc(Cl)ccc4o3)cccc2c1=O [Compound 1308] | 0 to 25% | 
3 | Cn1ccc2c(NC(=O)CCc3cccc(Cl)c3)cccc2c1=O [Compound 1309] | ≥ 76% | 
4 | COCCn1ccc2c(NC(=O)c3ccccc3C)cccc2c1=O [Compound 1310] | 0 to 25% | 
5 | COCCn1ccc2c(NC(=O)CCc3ccc(OC)cc3)cccc2c1=O [Compound 1311] | 0 to 25% | 
6 | COCCn1ccc2c(NC(=O)c3cccc4ccccc34)cccc2c1=O [Compound 1312] | 0 to 25% | 
7 | COCCn1ccc2c(NC(=O)Cc3cc(OC)ccc3OC)cccc2c1=O [Compound 1313] |  | 0 to 25%
8 | COCCn1ccc2c(NC(=O)Cc3ccc(OC)c(OC)c3)cccc2c1=O [Compound 1314] | 0 to 25% | 
9 | COCCn1ccc2c(NC(=O)Cc3cccc(C)c3)cccc2c1=O [Compound 1315] | 0 to 25% | 
10 | COCCn1ccc2c(NC(=O)Cc3ccc(OC)cc3)cccc2c1=O [Compound 1316] | 0 to 25% | 
11 | CCOc1ccc(CC(=O)Nc2cccc3c(=O)n(CCOC)ccc23)cc1 [Compound 1317] | 0 to 25% | 
12 | COCCn1ccc2c(NC(=O)Cc3ccc(C)cc3)cccc2c1=O [Compound 1318] | 0 to 25% | 
13 | COCCn1ccc2c(NC(=O)CCCc3ccccc3)cccc2c1=O [Compound 1319] | 0 to 25% | 
14 | COCCn1ccc2c(NC(=O)c3cc4ccccc4o3)cccc2c1=O [Compound 1320] | 0 to 25% | 
15 | COCCn1ccc2c(NC(=O)Cc3ccc4c(c3)OCO4)cccc2c1=O [Compound 1321] | 0 to 25% | 
16 | COCCn1ccc2c(NC(=O)Cc3cc(OC)cc(OC)c3)cccc2c1=O [Compound 1322] | 0 to 25% | 
17 | COCCn1ccc2c(NC(=O)c3cc(C)c(OC)c(C)c3)cccc2c1=O [Compound 1323] | 0 to 25% | 

Row | Compound | inhibition at 0.3 µM | inhibition at 0.1 µM (0.1 μM compound, symbols * to ****, read-out: IL-1β % Inhib. (asterisk symbols: at 0.1 μM))
18 | COCCn1ccc2c(NC(=O)c3ccc(C)c(Cl)c3)cccc2c1=O [Compound 1324] | 26 to 50% | 
19 | COCCn1ccc2c(NC(=O)c3ccc(Cl)cc3C)cccc2c1=O [Compound 1325] | 26 to 50% | 
20 | COCCn1ccc2c(NC(=O)CC3CC4CC[C@H]3C4)cccc2c1=O (stereo partly shown) [Compound 1326] | ≥ 76% | 
21 | COCCn1ccc2c(NC(=O)[C@@]34C[C@@H]5C[C@@H](C[C@@H]3C5)C4)cccc2c1=O [Compound 1327] | 0 to 25% | 
22 | COCCn1ccc2c(NC(=O)c3ccc4c(c3)OCCCO4)cccc2c1=O [Compound 1328] | 0 to 25% | 
23 | COCCn1ccc2c(NC(=O)Cc3csc4ccccc34)cccc2c1=O [Compound 1329] | 0 to 25% | 
24 | COCCn1ccc2c(NC(=O)c3cccc(Cl)c3C)cccc2c1=O [Compound 1330] | 0 to 25% | 
25 | COCCn1ccc2c(NC(=O)Cc3cc(C)cc(C)c3)cccc2c1=O [Compound 1331] | 0 to 25% | 
26 | COCCn1ccc2c(NC(=O)[C@H]3C[C@@H]4CC[C@H]3C4)cccc2c1=O [Compound 1332] | 0 to 25% | 
27 | COCCn1ccc2c(NC(=O)Cc3ccc(OC)cc3OC)cccc2c1=O [Compound 1333] | 0 to 25% | 
28 | COCCn1ccc2c(NC(=O)c3ccc(F)c(C)c3)cccc2c1=O [Compound 1334] | 0 to 25% | 
29 | COCCn1ccc2c(NC(=O)CCc3ccc(Cl)cc3)cccc2c1=O [Compound 1335] | 0 to 25% | 
30 | CCOc1ccccc1CC(=O)Nc1cccc2c(=O)n(CCOC)ccc12 [Compound 1336] | 0 to 25% | 
31 | COCCn1ccc2c(NC(=O)Cc3ccc(OC)c(C)c3)cccc2c1=O [Compound 1337] | 0 to 25% | 
32 | COCCn1ccc2c(NC(=O)CCc3cccc(C)c3)cccc2c1=O [Compound 1338] | 0 to 25% | 
33 | COCCn1ccc2c(NC(=O)c3cccc(C)c3Cl)cccc2c1=O [Compound 1339] | 0 to 25% | 
34 | COCCn1ccc2c(NC(=O)c3ccc(OC)c(C)c3)cccc2c1=O [Compound 1340] | 0 to 25% | 
